Results on ten molecules are retold here after patent publication US20110118343A1, “Antitumoral Macrolides” (Pharma Mar, S. A., priority 2008, published 2011).

One series has as its system L1210. Particulars: L1210 cell line; cited from earlier work.
In another series the test system is KB cells. Particulars: KB cell line; cited from earlier work.
A further series has as its system P388 leukemia. Particulars: cited from earlier work; for antitumor activity / toxicity in antitumoral study: P388 leukemia cell line in CDF1 mice.
For series [1], the system named is MDA-MB-231. In words: SRB colorimetric cytotoxicity assay, MDA-MB-231. It counts as cell-based. Particulars: for LC50 (concentration killing 50% of cells) / GI50: Homo sapiens; for LC50 (concentration killing 50% of cells): MDA-MB-231, 72 h, read-out: LC50; for GI50 / TGI: MDA-MB-231, 72 hours treatment, SRB; for TGI: total cell growth inhibition. The source says: (§1) The aim of this assay is to evaluate the in vitro cytostatic (ability to delay or arrest tumor cell growth) or cytotoxic (ability to kill tumor cells) activity of the samples being tested.
(§2) A colorimetric assay, using sulforhodamine B (SRB) reaction has been adapted to provide a quantitative measurement of cell growth and viability (following the technique described by Skehan et al. J. Natl. Cancer Inst. 1990, 82, 1107-1112).
(§3) This form of assay employs SBS-standard 96-well cell culture microplates (Faircloth et al. Methods in Cell Science, 1988, 11(4), 201-205; Mosmann et al, Journal of Immunological Methods, 1983, 65(1-2), 55-63). All the cell lines used in this study were obtained from the American Type Culture Collection (ATCC) and derive from different types of human cancer.
(§4) Cells were maintained in Dulbecco's Modified Eagle Medium (DMEM) supplemented with 10% Fetal Bovine Serum (FBS), 2 mM L-glutamine, 100 U/mL penicillin and 100 U/mL streptomycin at 37° C., 5% CO2 and 98% humidity. For the experiments, cells were harvested from subconfluent cultures using trypsinization and resuspended in fresh medium before counting and plating.
(§5) Cells were seeded in 96 well microtiter plates, at 5×10^3-7.5×10^3 cells per well in aliquots of 150 μL, and allowed to attach to the plate surface for 18 hours (overnight) in drug free medium. After that, one control (untreated) plate of each cell line was fixed (as described below) and used for time zero reference value. Culture plates were then treated with test compounds (50 μL aliquots of 4× stock solutions in complete culture medium plus 4% DMSO) using ten serial dilutions (concentrations ranging from 10 to 0.00262 μg/mL) and triplicate cultures (1% final concentration of DMSO). After 72 hours treatment, the antitumor effect was measured by using the SRB methodology: Briefly, cells were washed twice with PBS, fixed for 15 min in 1% glutaraldehyde solution at room temperature, rinsed twice in PBS, and stained in 0.4% SRB solution for 30 min at room temperature. Cells were then rinsed several times with 1% acetic acid solution and air-dried at room temperature. SRB was then extracted in 10 mM trizma base solution and the absorbance measured in an automated spectrophotometric plate reader at 490 nm. Effects on cell growth and survival were estimated by applying the NCI algorithm (Boyd M R and Paull K D. Drug Dev. Res. 1995, 34, 91-104).
(§6) Using the mean±SD of triplicate cultures, a dose-response curve was automatically generated using nonlinear regression analysis. Three reference parameters were calculated (NCI algorithm) by automatic interpolation: GI50=compound concentration that produces 50% cell growth inhibition, as compared to control cultures; TGI=compound concentration that produces total cell growth inhibition (cytostatic effect), as compared to control cultures, and LC50=compound concentration that produces 50% net cell killing (cytotoxic effect).

Series [2] concerns HT29. In words: SRB colorimetric cytotoxicity assay, HT29. It counts as cell-based. The following applies: for TGI / GI50: HT29, 72 hours treatment, SRB; for TGI: total cell growth inhibition; for CC50 / GI50: Homo sapiens; for CC50: HT-29, 72 h, read-out: LC50; for GI50: HT-29.
From the text: as §1, §2, §3, §4, §5, §6

The test system of series [3] is A549. In words: SRB colorimetric cytotoxicity assay, A549. The class given is cell-based. Particulars: for TGI / GI50: A549, 72 hours treatment, SRB; for TGI: total cell growth inhibition; for CC50 / GI50: Homo sapiens; for CC50: A549, 72 h, read-out: LC50.
From the text: as §1, §2, §3, §4, §5, §6

Series [4] deals with HT29. The following applies: cited from earlier work.
Series [5] has as its system MDA-MB-231. Particulars: cited from earlier work.
Series [6] concerns A549. The following applies: cited from earlier work.

In brackets after ≈: the same amount, converted by molar mass. Read-outs that look alike come from different tables or passages of the source.

On to `COC1CC(C)OC(CCC(C)C(O)C(C)C2OC(=O)/C=C\C(C)=C\CC(O)CC3C=CCC(CC(OC)C(C)C(O)CC(O)C(C)C(C(C)C(O)C(C)CCC4CC(O)CC(C)O4)OC(=O)/C=C\C(C)=C\CC(O)CC4C=CCC(CC(OC)C(C)C(O)CC(O)C2C)O4)O3)C1` (stereo not shown) [Swinholide C], for which the “IC50 (cytotoxicity)” value with L1210 is 0.14 µg/mL (≈ 0.102 µM); in the series on KB cells it was 0.05 µg/mL (≈ 0.0363 µM).

`CO[C@H]1CC(CC[C@H](C)C2OC(=O)/C=C/C(C)=C/CC(O)C[C@@H]3C=CCC(C[C@H](OC)[C@@H](C)[C@@H](O)C[C@@H](O)[C@H](C)[C@H](O)[C@@H](C)[C@H]([C@@H](C)CC[C@H]4C[C@H](OC)C[C@H](C)O4)OC(=O)/C=C/C(C)=C/C[C@H](O)C[C@@H]4C=CCC(C[C@H](OC)[C@@H](C)[C@@H](O)C[C@@H](O)[C@H](C)[C@H](O)[C@H]2C)O4)O3)O[C@@H](C)C1` (single isomer, unassigned) [isomer 11]: in the series on P388 leukemia, the antitumor activity result is on record as “did not show promising antitumor activity” and the “toxicity in antitumoral study” value is listed as “toxic”.

In the case of `CO[C@H]1CC(CC[C@H](C)[C@H](O)[C@H](C)[C@H]2OC(=O)/C=C/C(C)=C/C[C@H](O)C[C@@H]3C=CC[C@@H](C[C@H](OC)[C@@H](C)[C@@H](O)C[C@@H](O)[C@H](C)[C@@H]([C@@H](C)[C@@H](O)[C@@H](C)CC[C@H]4C[C@H](OC)C[C@H](C)O4)OC(=O)/C=C/C(C)=C/C[C@H](O)C[C@@H]4C=CC[C@@H](C[C@H](OC)[C@@H](C)[C@@H](O)C[C@@H](O)[C@@H]2C)O4)O3)O[C@@H](C)C1` (stereo partly shown) [Swinholide A], the “IC50 (cytotoxicity)” value with L1210 was 0.03 µg/mL (≈ 0.0216 µM); in the series on KB cells it was 0.04 µg/mL (≈ 0.0288 µM). Further, the antitumor activity entry with P388 leukemia was “did not show promising antitumor activity”. Also, the “toxicity in antitumoral study” value with P388 leukemia is “toxic”.

Consider `COCC1C/C(C)=C\C2OC(=O)C/C(=C\C=C\C(O)CC(O)C(C)C(OC)CCC(C)C(OC)CC3CC(=CC(=O)O3)CC(=O)N/C=C\C=C\CC(CC(=O)OC)CC(O)C/C(C)=C\C=C\C(OC)CC(=O)O1)C2C` (stereo not shown) [Nanomolide C], for which, in the series with MDA-MB-231 [1], the LC50 (concentration killing 50% of cells) was found to be 22.8 nM, the GI50 came out at 15.2 nM and the TGI was 1.90E−08 Molar. Moreover, in the series on HT29 [2], the TGI came to 1.52E−08 Molar, the CC50 is 21.8 nM and the GI50 amounted to 12.3 nM. Besides, in the series on A549 [3], the TGI amounted to 2.47E−08 Molar, the CC50 is 49.3 nM and the GI50 came to 14.2 nM.

Consider `CO[C@H]1CC(CC[C@H](C)[C@H](O)[C@H](C)C2OC(=O)/C=C/C(C)=C/C[C@H](O)C[C@@H]3C=CC[C@@H](C[C@H](OC)[C@@H](C)[C@@H](O)C[C@@H](O)[C@H](C)[C@H](O)[C@@H](C)[C@H]([C@@H](C)CC[C@H]4C[C@H](OC)C[C@H](C)O4)OC(=O)/C=C/C(C)=C/C[C@H](O)C[C@@H]4C=CCC(C[C@H](OC)[C@@H](C)[C@@H](O)C[C@@H](O)[C@@H]2C)O4)O3)O[C@@H](C)C1` (stereo partly shown) [isoswinholide A], for which, in the series on L1210, the “IC50 (cytotoxicity)” value is 1.35 µg/mL (≈ 0.971 µM). In addition, the “IC50 (cytotoxicity)” value in the series with KB cells was 1.1 µg/mL (≈ 0.791 µM). Also, in the series with P388 leukemia, the antitumor activity entry is listed as “did not show promising antitumor activity” and the “toxicity in antitumoral study” value is “toxic”.

With `COCC1C/C(C)=C\C2OC(=O)C=C(C/C=C/C(O)CC(O)C(C)C(OC)CCC(C)C(OC)CC3CC(=CC(=O)O3)CC(=O)N/C=C\C=C\CC(CC(=O)OC)CC(O)C/C(C)=C\C=C\C(OC)CC(=O)O1)C2C` (stereo not shown) [Nanomolide A], in the series on MDA-MB-231 [1], the LC50 (concentration killing 50% of cells) is 45.5 nM, the GI50 was 8.35 nM and the TGI amounted to 1.71E−08 Molar. In addition, in the series with HT29 [2], the TGI came out at 1.04E−08 Molar, the CC50 was determined as 16.1 nM and the GI50 was determined as 7.59 nM. Further, in the series with A549 [3], the TGI is listed as 1.52E−08 Molar, the CC50 came to 23.7 nM and halving of growth (GI50) required 10.4 nM.

With `COCC1C/C(C)=C\C2OC(=O)C=C(C/C=C/C(O)CC(O)C(C)C(OC)CCC(C)C(OC)CC3CC(=CC(=O)O3)CC(=O)N/C=C\C=C\CC3CC(=O)OC(C/C(C)=C\C=C\C(OC)CC(=O)O1)C3)C2C` (stereo not shown) [Nanomolide B], in the series on MDA-MB-231 [1], the LC50 (concentration killing 50% of cells) was determined as 108 nM, the GI50 came to 94.9 nM and the TGI came out at 9.78E−08 Molar. For the same molecule, in the series on HT29 [2], the TGI is recorded as 9.29E−08 Molar, the CC50 is 97.8 nM and the GI50 worked out at 88 nM. Moreover, in the series on A549 [3], the TGI is listed as 1.27E−07 Molar, the CC50 was 235 nM and the GI50 was 73.4 nM.

As for `COC1CC(C)OC(CCC(C)C(O)C(C)C2OC(=O)/C(C)=C/CC(O)CC3C=CCC(CC(OC)C(C)C(O)CC(O)C(C)C(C(C)C(O)C(C)CCC4CC(OC)CC(C)O4)OC(=O)/C(C)=C/CC(O)CC4C=CCC(CC(OC)C(C)C(O)CC(O)C2C)O4)O3)C1` (stereo not shown) [Misakinolide A], the “IC50 (cytotoxicity)” value in the series on L1210 was 0.035 µg/mL (≈ 0.0262 µM). Further, the T/C in the series on P388 leukemia (dose of 0.1 mg/kg (mouse) against P388 leukemia) was 140%.

Regarding Swinholide B, the “IC50 (cytotoxicity)” value in the series on L1210 was 0.30 µg/mL; in the series on KB cells, 0.04 µg/mL.

In the case of `COC1CC(C)OC(CCC(C)C(O)C(C)C2OC(=O)/C=C/C(C)=C/CC(O)CC3C=CCC(CC(OC)C(C)C(O)CC(O)C(C)C(C(C)C(O)C(C)CCC4CC(OC)CC(C)O4)OC(=O)/C(C)=C/CC(O)CC4C=CCC(CC(OC)C(C)C(O)CC(O)C2C)O4)O3)C1` (stereo not shown) [compound a], the values for the GI50 in the series with HT29 [4], with MDA-MB-231 [5] and in the series on A549 [6] were 338 nM, 808 nM and 228 nM, respectively.

Usually GI50 stands for the concentration at which growth is held to half of that of the control. What is called T/C is the ratio of treated to control.
